Measurements published in PubChem BioAssay AID2060609 (Molecular Pharmacology Branch, DTP, NCI, 2025).
Where “and” joins values, the source holds several entries; their conditions need not be identical. Identical values can stand only once.

Test system: 855422-203-R-J1-PDC complex spheroids, viability
Assay: Anticancer human tumor 855422-203-R-J1-PDC patient-derived bladder carcinoma cell line growth inhibition [CLK]
Conditions: for viability, T/C: stronger effect = lower value
Text: A high-throughput screen of multi-cell type tumor spheroids was designed to identify active combinations of […] and targeted small molecules. Complex spheroids include a stromal component modeled by human endothelial cells (HUVEC) and fibroblasts modeled by human mesenchymal stem cells (MSCs). The concentration ranges selected for each drug and investigational agent were based upon clinically achievable concentrations if the clinical Cmax of the agent was known.
Compounds. The drugs and investigational agents: cirtuvivint (SM08502; NSC835563), CC-671 (NSC850746), vemurafenib (NSC761431), tapotoclax (NSC804041), sotorasib (NSC818433), adagrasib (NSC831453), MRTX-1133 (NSC836407), BAY2416964 (NSC825713), copanlisib (NSC816437), inavolisib (NSC800729), abemaciclib (NSC768073), osimertinib (NSC779217), entinostat (NSC756642), eltanexor (KPT-8602, NSC794443), venetoclax (NSC766270), ceralasertib (NSC777638), bortezomib (NSC756655), olaparib (NSC753686), talazoparib (NSC767125), alisertib (NSC759677), peposertib (NSC802822), gemcitabine (NSC613327), 5-fluorouracil (NSC19893), SN-38 (NSC673596), oxaliplatin (NSC266046), paclitaxel (NSC125973), and doxorubicin (NSC123127), were obtained from the National Cancer Institute (NCI) Developmental Therapeutics Program Chemical Repository. The FDA-approved anticancer drug set is available from the Developmental Therapeutics Program at https://dtp.cancer.gov/organization/dscb/obtaining/available plates.htm. […] The stock solutions were prepared in dimethyl sulfoxide (DMSO, Sigma-Aldrich, St. Louis, MO, cat. D2650), except for the platinum complexes which were prepared in saline (Quality Biological, Gaithersburg, MD, cat. 114-055-101), at 800-fold the tested concentration and stored at -70 degrees C prior to their use. All drugs and investigational agents were tested over a range starting from a high concentration at or near the clinical Cmax and decreasing in half-log increments. If the clinical Cmax for an agent had not been determined, the highest concentration tested was 10 microM.
Cell Culture. All cells were maintained in an incubator at 37 degrees C and 5% CO2 with 95% humidity. The PDC lines were cultured according to standard operating procedures established by the NCI PDMR. Briefly, all PDCs were thawed and cultured in Matrigel-coated flasks prepared with a working solution of 1X Ham's F-12 nutrient mix, without supplementation (Invitrogen, Waltham, MA, cat. 11765054), 100 U/mL penicillin-streptomycin (Invitrogen, cat. 15140122), and 2.5% Matrigel (Corning Inc., Corning, NY, cat. 354248) for the first three passages. The 947758-054-R-J2-PDC line was cultured in 6B/Colon 1A media, which includes advanced DMEM/F-12 (Thermo Fisher Scientific, cat. 12634028), 10 mM HEPES (Thermo Fisher Scientific, cat. 15630080), 1X GlutaMAX supplement (Thermo Fisher Scientific, cat. 35050061), 0.1 mg/mL primocin (InvivoGen, cat. ant-pm-2), 10% defined fetal bovine serum, heat inactivated (HyClone Laboratories Inc., cat. SH30070.03HI), 1.25 mM N-Acetyl-L-cysteine (Sigma-Aldrich, cat. A9165), 10 mM nicotinamide (Sigma-Aldrich, cat. N0636), 1X B-27 supplement (Thermo Fisher Scientific, cat. 17504044), 1X N-2 supplement (Thermo Fisher Scientific, cat. 17502048), and 10 microM Y-27632 dihydrochloride (Tocris Bioscience, cat. 1254). The 876862-298-R-J1-PDC was cultured in 6E media, which includes all 6B/Colon 1A media components plus 50% L-WRN conditioned media (ATCC, cat. CRL-3276), 50 ng/mL recombinant human EGF recombinant protein (hEGF; Thermo Fisher Scientific, cat. PHG0311), 10 ng/mL recombinant human fibroblast growth factor 10 (hGFG-10; PeproTech, cat. 100-26), 1 ng/mL recombinant human fibroblast growth factor 2 (hFGF-2; PeproTech, cat. 100-18B), and 1 µM prostaglandin E2 (PGE2; Tocris, cat. 2296). The 227483-062-R1-J1-PDC line was cultured in Panc media, containing all 6E components except hFGF-2, with the addition of 500 nM SB-431542 (Selleckchem, cat. S1067) and 10 nM gastrin (Tocris, cat. 3006). […]

[1] = curve of first compound, second compound 0.0316 µM
[2] = curve of first compound, second compound 0.1 µM
[3] = curve of first compound, second compound 0.316 µM
[4] = curve of first compound, second compound 1 µM
[5] = curve of first compound, second compound 3.16 µM
[6] = curve of first compound, second compound 10 µM
[7] = second compound 0.0316 µM, first compound 0.0316 µM
[8] = second compound 0.0316 µM, first compound 0.1 µM
[9] = second compound 0.0316 µM, first compound 0.316 µM
[10] = second compound 0.0316 µM, first compound 1 µM
[11] = second compound 0.0316 µM, first compound 3.16 µM
[12] = second compound 0.0316 µM, first compound 10 µM
[13] = second compound 0.1 µM, first compound 0.0316 µM
[14] = second compound 0.1 µM, first compound 0.1 µM
[15] = second compound 0.1 µM, first compound 0.316 µM
[16] = second compound 0.1 µM, first compound 1 µM
[17] = second compound 0.1 µM, first compound 3.16 µM
[18] = second compound 0.1 µM, first compound 10 µM
[19] = second compound 0.316 µM, first compound 0.0316 µM
[20] = second compound 0.316 µM, first compound 0.1 µM
[21] = second compound 0.316 µM, first compound 0.316 µM
[22] = second compound 0.316 µM, first compound 1 µM
[23] = second compound 0.316 µM, first compound 3.16 µM
[24] = second compound 0.316 µM, first compound 10 µM
[25] = second compound 1 µM, first compound 0.0316 µM
[26] = second compound 1 µM, first compound 0.1 µM
[27] = second compound 1 µM, first compound 0.316 µM
[28] = second compound 1 µM, first compound 1 µM
[29] = second compound 1 µM, first compound 3.16 µM
[30] = second compound 1 µM, first compound 10 µM
[31] = second compound 3.16 µM, first compound 0.0316 µM
[32] = second compound 3.16 µM, first compound 0.1 µM
[33] = second compound 3.16 µM, first compound 0.316 µM
[34] = second compound 3.16 µM, first compound 1 µM
[35] = second compound 3.16 µM, first compound 3.16 µM
[36] = second compound 3.16 µM, first compound 10 µM
[37] = second compound 10 µM, first compound 0.0316 µM
[38] = second compound 10 µM, first compound 0.1 µM
[39] = second compound 10 µM, first compound 0.316 µM
[40] = second compound 10 µM, first compound 1 µM
[41] = second compound 10 µM, first compound 3.16 µM
[42] = second compound 10 µM, first compound 10 µM
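Also: spheroids exposed to drugs for seven days before readout.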
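For viability, T/C in this document: 100% = DMSO vehicle control wells.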

What does the source list for CC(=O)O[C@H]1C(=O)[C@@]2(C)[C@H]([C@H](OC(=O)c3ccccc3)[C@]3(O)C[C@H](OC(=O)[C@H](O)[C@@H](NC(=O)c4ccccc4)c4ccccc4)C(C)=C1C3(C)C)[C@]1(OC(C)=O)CO[C@@H]1C[C@@H]2O + CN1CCN(c2cc(C(=O)Nc3cc4cc(-c5cnn(C)c5)ccc4cn3)ccn2)CC1?
IC50 [1]: < 31.6 nM; IC50 [2]: < 31.6 nM; IC50 [3]: < 31.6 nM; IC50 [4]: < 31.6 nM; IC50 [5]: < 31.6 nM; IC50 [6]: < 31.6 nM; viability, T/C [7]: 8.75%; viability, T/C [8]: 7.02%; viability, T/C [9]: 5.26%; viability, T/C [10]: 9.34%; viability, T/C [11]: 9.46%; viability, T/C [12]: 10.8%; viability, T/C [13]: 8.5%; viability, T/C [14]: 7.8%; viability, T/C [15]: 6.23%; viability, T/C [16]: 6.41%; viability, T/C [17]: 8.14%; viability, T/C [18]: 8.37%; viability, T/C [19]: 4.94%; viability, T/C [20]: 5.41%; viability, T/C [21]: 5.22%; viability, T/C [22]: 4.69%; viability, T/C [23]: 4.5%; viability, T/C [24]: 5.61%; viability, T/C [25]: 0.21%; viability, T/C [26]: 0.19%; viability, T/C [27]: 0.18%; viability, T/C [28]: 1.39%; viability, T/C [29]: 1.11%; viability, T/C [30]: 0.14%; viability, T/C [31]: 0.45%; viability, T/C [32]: 0.41%; viability, T/C [33]: 0.38%; viability, T/C [34]: 0.39%; viability, T/C [35]: 0.32%; viability, T/C [36]: 0.37%; viability, T/C [37]: 1.12%; viability, T/C [38]: 0.73%; viability, T/C [39]: 0.33%; viability, T/C [40]: 1.28%; viability, T/C [41]: 0.43%; viability, T/C [42]: 2.45%

Which IC50 [1] does the source give for C=CC(=O)N1CCN(c2nc(=O)n(-c3c(C)ccnc3C(C)C)c3nc(-c4c(O)cccc4F)c(F)cc23)C(C)C1 (stereo unspecified) + CN1CCN(c2cc(C(=O)Nc3cc4cc(-c5cnn(C)c5)ccc4cn3)ccn2)CC1 here?
The IC50 was greater than 10000 nM.

And the IC50 [2]?
The IC50 was greater than 10000 nM.

What about the IC50 [3] of the same compound?
Its IC50 is less than 31.6 nM.

And the IC50 [4]?
The IC50 was less than 31.6 nM.

What about the IC50 [5] of the same compound?
The IC50 was less than 31.6 nM.

And the IC50 [6]?
Its IC50 is less than 31.6 nM.

What about the viability, T/C [7] of the same compound?
The viability, T/C was 99%.

And the viability, T/C [8]?
The viability, T/C was 110%.

What about the viability, T/C [9] of the same compound?
The viability, T/C was 134%.

What about the viability, T/C [10] of the same compound?
Its viability, T/C is 138%.

What about the viability, T/C [11] of the same compound?
The viability, T/C was 169%.

What about the viability, T/C [12] of the same compound?
The viability, T/C was 119%.

And the viability, T/C [13]?
The viability, T/C was 85.5%.

What about the viability, T/C [14] of the same compound?
The viability, T/C was 92.3%.

And the viability, T/C [15]?
The viability, T/C was 94.7%.

And the viability, T/C [16]?
The viability, T/C was 116%.

And the viability, T/C [17]?
Its viability, T/C is 113%.

What about the viability, T/C [18] of the same compound?
The viability, T/C was 82.1%.

What about the viability, T/C [19] of the same compound?
The viability, T/C was 12.1%.

What about the viability, T/C [20] of the same compound?
Its viability, T/C is 18.2%.

And the viability, T/C [21]?
Its viability, T/C is 17.9%.

What about the viability, T/C [22] of the same compound?
The viability, T/C was 17.6%.

What about the viability, T/C [23] of the same compound?
Its viability, T/C is 17.6%.

What about the viability, T/C [24] of the same compound?
Its viability, T/C is 7.91%.

What about the viability, T/C [25] of the same compound?
The viability, T/C was 0.24%.

And the viability, T/C [26]?
Its viability, T/C is 0.27%.

And the viability, T/C [27]?
Its viability, T/C is 0.3%.

And the viability, T/C [28]?
The viability, T/C was 0.42%.

And the viability, T/C [29]?
The viability, T/C was 0.52%.

And the viability, T/C [30]?
The viability, T/C was 2.45%.

What about the viability, T/C [31] of the same compound?
The viability, T/C was 0.88%.

And the viability, T/C [32]?
Its viability, T/C is 0.76%.

And the viability, T/C [33]?
The viability, T/C was 2.22%.

And the viability, T/C [34]?
Its viability, T/C is 1.37%.

And the viability, T/C [35]?
Its viability, T/C is 1.55%.

What about the viability, T/C [36] of the same compound?
The viability, T/C was 1.14%.

What about the viability, T/C [37] of the same compound?
Its viability, T/C is 0.53%.

What about the viability, T/C [38] of the same compound?
Its viability, T/C is 0.49%.

And the viability, T/C [39]?
The viability, T/C was 0.4%.

What about the viability, T/C [40] of the same compound?
The viability, T/C was 0.89%.

What about the viability, T/C [41] of the same compound?
The viability, T/C was 0.88%.

And the viability, T/C [42]?
The viability, T/C was 1.04%.

What does the source list for CC(=O)O[C@H]1C(=O)[C@@]2(C)[C@H]([C@H](OC(=O)c3ccccc3)[C@]3(O)C[C@H](OC(=O)[C@H](O)[C@@H](NC(=O)c4ccccc4)c4ccccc4)C(C)=C1C3(C)C)[C@]1(OC(C)=O)CO[C@@H]1C[C@@H]2O?
viability, T/C (compound 0.0316 µM): 7.73% and 9%; viability, T/C (compound 0.1 µM): 9.43% and 8.68%; viability, T/C (compound 0.316 µM): 9.33% and 9.1%; viability, T/C (compound 1 µM): 8.48% and 7.37%; viability, T/C (compound 3.16 µM): 8.93% and 7.1%; viability, T/C (compound 10 µM): 9.93% and 9.02%; IC50 (curve of compound): < 31.6 nM
